Laboratory results: US10294275B2, “Site-selective functionalization of glycopeptide antibiotics” (Yale University, priority 2012, dated 2019)
≈ marks a conversion by molar mass, not a printed value.

Assays:
Type in all cases: cell-based
[1] = test system: methicillin-susceptible S. aureus, ATCC 29213; assay: Minimum inhibitory concentration against MSSA; conditions: methicillin-susceptible S. aureus, ATCC 29213
Source text: (§1) The chemistry described above enabled direct synthesis of eleven previously unknown analogs of 3. The minimum inhibitory concentrations (MICs) for the new analogs as antibacterial agents as determined.

[2] = test system: vancomycin-susceptible enterococci, ATCC 29212; assay: Minimum inhibitory concentration against VSE; conditions: vancomycin-susceptible enterococci, ATCC 29212
Source text: as §1

[3] = test system: methicillin-resistant S. aureus, ATCC 43300; assay: Minimum inhibitory concentration against MRSA; conditions: for MIC, MRSA: methicillin-resistant S. aureus, ATCC 43300
Source text: as §1

[4] = test system: vancomycin-resistant enterococci (VanB), ATCC 51299; assay: Minimum inhibitory concentration against VRE (VanB); conditions: vancomycin-resistant enterococci, ATCC 51299
Source text: as §1

[5] = test system: vancomycin-resistant enterococci (VanA), MMX 486; assay: Minimum inhibitory concentration against VRE (VanA); conditions: MMX 486; vancomycin and teicoplanin resistant
Source text: as §1

Row | MIC, MSSA [1] | MIC, VSE [2] | MIC, MRSA [3] | MIC, VRE (VanB) [4] | MIC, VRE (VanA) [5] | Compound | potency against MRSA strain, in words ([3]; compared with vancomycin and teicoplanin)
1 | 0.5 µg/mL (≈ 0.255 µM) | 0.5 µg/mL (≈ 0.255 µM) | 1 µg/mL (≈ 0.511 µM) | 1 µg/mL (≈ 0.511 µM) | >64 µg/mL | CC(=O)N[C@H]1[C@H](O[C@@H]2c3ccc(c(Cl)c3)Oc3cc4cc(c3O[C@@H]3O[C@H](CO)[C@@H](O)[C@H](O)[C@H]3NC(=O)CCCCCCC(C)C)Oc3ccc(cc3Cl)C[C@H]3NC(=O)[C@H](N)c5ccc(O)c(c5)Oc5cc(O)cc(c5)[C@H](NC3=O)C(=O)N[C@H]4C(=O)N[C@H]3C(=O)N[C@@H]2C(=O)N[C@H](C(=O)O)c2c(Br)c(O)cc(O[C@H]4O[C@H](CO)[C@@H](O)[C@H](O)[C@@H]4O)c2-c2cc3ccc2O)O[C@H](CO)[C@@H](O)[C@@H]1O [Compound 4] | 
2 | 0.5 µg/mL (≈ 0.255 µM) | 0.25 µg/mL (≈ 0.128 µM) | 1 µg/mL (≈ 0.511 µM) | 0.5 µg/mL (≈ 0.255 µM) | >64 µg/mL | CC(=O)N[C@H]1[C@H](O[C@@H]2c3ccc(c(Cl)c3)Oc3cc4cc(c3O[C@@H]3O[C@H](CO)[C@@H](O)[C@H](O)[C@H]3NC(=O)CCCCCCC(C)C)Oc3ccc(cc3Cl)C[C@H]3NC(=O)[C@H](N)c5ccc(O)c(c5)Oc5cc(O)c(Br)c(c5)[C@H](NC3=O)C(=O)N[C@H]4C(=O)N[C@H]3C(=O)N[C@@H]2C(=O)N[C@H](C(=O)O)c2cc(O)cc(O[C@H]4O[C@H](CO)[C@@H](O)[C@H](O)[C@@H]4O)c2-c2cc3ccc2O)O[C@H](CO)[C@@H](O)[C@@H]1O [Compound 7] | 
3 | 2 µg/mL (≈ 0.945 µM) | 4 µg/mL (≈ 1.89 µM) | 2 µg/mL (≈ 0.945 µM) | 8 µg/mL (≈ 3.78 µM) | >64 µg/mL | CC(=O)N[C@H]1[C@H](O[C@@H]2c3ccc(c(Cl)c3)Oc3cc4cc(c3O[C@@H]3O[C@H](CO)[C@@H](O)[C@H](O)[C@H]3NC(=O)CCCCCCC(C)C)Oc3ccc(cc3Cl)C[C@H]3NC(=O)[C@H](N)c5ccc(O)c(c5)Oc5cc(c(Br)c(O)c5Br)[C@H](NC3=O)C(=O)N[C@H]4C(=O)N[C@H]3C(=O)N[C@@H]2C(=O)N[C@H](C(=O)O)c2cc(O)c(Br)c(O[C@H]4O[C@H](CO)[C@@H](O)[C@H](O)[C@@H]4O)c2-c2cc3ccc2O)O[C@H](CO)[C@@H](O)[C@@H]1O [Compound 12] | 
4 | 0.25 µg/mL (≈ 0.128 µM) | 0.25 µg/mL (≈ 0.128 µM) | 0.25 µg/mL (≈ 0.128 µM) | 0.5 µg/mL (≈ 0.257 µM) | >64 µg/mL | CC(=O)N[C@H]1[C@H](O[C@@H]2c3ccc(c(Cl)c3)Oc3cc4cc(c3O[C@@H]3O[C@H](CO)[C@@H](O)[C@H](O)[C@H]3NC(=O)CCCCCCC(C)C)Oc3ccc(cc3Cl)C[C@H]3NC(=O)[C@H](N)c5ccc(O)c(c5)Oc5cc(O)c(-c6ccoc6)c(c5)[C@H](NC3=O)C(=O)N[C@H]4C(=O)N[C@H]3C(=O)N[C@@H]2C(=O)N[C@H](C(=O)O)c2cc(O)cc(O[C@H]4O[C@H](CO)[C@@H](O)[C@H](O)[C@@H]4O)c2-c2cc3ccc2O)O[C@H](CO)[C@@H](O)[C@@H]1O [Compound 14] | higher potency
5 | 0.25 µg/mL (≈ 0.126 µM) | 0.12 µg/mL (≈ 0.0607 µM) | 0.25 µg/mL (≈ 0.126 µM) | 0.25 µg/mL (≈ 0.126 µM) | >32 µg/mL | CC(=O)N[C@H]1[C@H](O[C@@H]2c3ccc(c(Cl)c3)Oc3cc4cc(c3O[C@@H]3O[C@H](CO)[C@@H](O)[C@H](O)[C@H]3NC(=O)CCCCCCC(C)C)Oc3ccc(cc3-c3ccoc3)C[C@H]3NC(=O)[C@H](N)c5ccc(O)c(c5)Oc5cc(O)c(-c6ccoc6)c(c5)[C@H](NC3=O)C(=O)N[C@H]4C(=O)N[C@H]3C(=O)N[C@@H]2C(=O)N[C@H](C(=O)O)c2cc(O)cc(O[C@H]4O[C@H](CO)[C@@H](O)[C@H](O)[C@@H]4O)c2-c2cc3ccc2O)O[C@H](CO)[C@@H](O)[C@@H]1O [Compound 15] | 
